Structures can show the parent of a compound that is named as a salt. Where two headings read alike, the source gives them in different places.
Tests used:
[1] = system: patients with persistent atrial fibrillation; settings: SAFE-T trial, cited from earlier work; for increasing the time to a recurrence of atrial fibrillation, versus placebo / effectiveness in increasing time to recurrence of atrial fibrillation relative to sotalol: P<0.001; for number of strokes per 100 patient-years of follow-up: calculated from page 1866 of Singh et al., placebo 1.91
[2] = system: patients with a history of atrial fibrillation or atrial flutter; test: Prospective, multinational, double-blind, randomized, placebo-controlled, parallel group trial (ATHENA) of dronedarone hydrochloride for prevention of stroke; assay type: in vivo, human
Description: Efficacy of dronedarone and its pharmaceutically acceptable salts versus placebo for the prevention of stroke was provided via dronedarone hydrochloride during a prospective, multinational, double-blind, randomized, multi-center, placebo-controlled, parallel group trial.
Eligible patients have a history of atrial fibrillation or atrial flutter and/or may be in normal sinus rhythm or in atrial fibrillation or flutter at the time of recruitment. Recruitment of patients was conducted taking into account the following inclusion criteria:
1) One of the following risk factors had to be present: • age equal to or greater than 70 years, • hypertension (taking antihypertensives of at least two different classes), • diabetes, • history of cerebral stroke (transient ischemic event or completed cerebral stroke) or of systemic embolism, • left atrial diameter greater than or equal to 50 mm measured by echocardiography, • left ventricular ejection fraction less than 40%, measured by two-dimensional echography; or • age equal to or above 70, or even above 75, possibly combined with at least one of the risk factors below: • hypertension (taking antihypertensives of at least two different classes), • diabetes, • history of cerebral stroke (transient ischemic event or completed cerebral stroke) or of systemic embolism, • left atrial diameter greater than or equal to 50 mm measured by echocardiography, • left ventricular ejection fraction less than 40%, measured by two-dimensional echography;
2) availability of one electrocardiogram within the last six months, showing that the patients was or is in atrial fibrillation/flutter,
3) availability of one electrocardiogram within the last six months, showing that the patients was or is in sinus rhythm.
Study drug treatment units (placebo or dronedarone hydrochloride corresponding to 400 mg of base) were such that each patient took one tablet in the morning during or shortly after breakfast and one tablet in the evening during or shortly after dinner.
The treatment duration depended on the time of recruitment of each patient in the trial and could be comprised from 12 months to 30 months.
Results were calculated using non-parametric Kaplan-Meier estimate.
Cox's proportional hazard model was used to estimate the hazard ratio also called relative risk.
Relative risk (RR) is the ratio between the risk of having a stroke (or transient ischemic attack (TIA)) for patients treated with dronedarone and the risk of having a stroke (or transient ischemic attack (TIA)) for patients treated with placebo.
Percentage of decrease of an event is calculated as follow: […]

[3] = on-treatment analysis of 30 months
[4] = versus placebo, Cox's proportional hazard model

## CCCCc1oc2ccccc2c1C(=O)c1cc(I)c(OCCN(CC)CC)c(I)c1 [amiodarone]
[1]
  increasing the time to a recurrence of atrial fibrillation, versus placebo: significantly more effective than placebo
  number of strokes per 100 patient-years of follow-up: 2.06 per 100 patient-years
[1]; analysis according to the treatment actually received
  effectiveness in increasing time to recurrence of atrial fibrillation relative to sotalol: four times as effective
[1]; intention-to-treat analysis
  effectiveness in increasing time to recurrence of atrial fibrillation relative to sotalol: six times as effective as sotalol

## CCCCc1oc2ccc(NS(C)(=O)=O)cc2c1C(=O)c1ccc(OCCCN(CCCC)CCCC)cc1 [dronedarone hydrochloride, 2-n-butyl-3-[4-(3-di-n-butylaminopropoxy)benzoyl]-5-méthylsulfonamido-benzofuranne]
[2]; 2301 of 4628 patients on drug, 400 mg base twice daily, 12 to 30 months, placebo group 18 events
  fatal stroke events reported: 11
[2]; 2301 of 4628 patients on drug, 400 mg base twice daily, 12 to 30 months, placebo group 49 events
  ischemic stroke events reported: 33
[2]; 2301 of 4628 patients on drug, 400 mg base twice daily, 12 to 30 months, placebo group 70 events
  stroke events reported: 45
[2]; 2301 of 4628 patients on drug, 400 mg base twice daily, 12 to 30 months, placebo group 80 events
  stroke or TIA events reported: 52
[2]; 2301 of 4628 patients on drug, 400 mg base twice daily, 12 to 30 months, placebo group 89 events
  ACS events reported (cardiovascular hospitalization for Acute Coronary Syndrome): 62
[2]; 2301 of 4628 patients on drug, 400 mg base twice daily, 12 to 30 months, placebo group 216 events
  stroke, Acute Coronary Syndrome (ACS) or cardiovascular death events reported: 147
[2]; 2301 of 4628 patients on drug, 400 mg base twice daily, 12 to 30 months, placebo group 262 events
  stroke, Acute Coronary Syndrome (ACS) or death events reported: 196
[2]; [3]
  time course of effect on first stroke (FIG. 2, Kaplan Meier cumulative incidence curves): occurred early and increased over time
  time course of effect on first stroke or TIA (FIG. 1, Kaplan Meier cumulative incidence curves): occurred early and increased over time
[2]; [4]
  relative risk of cardiovascular hospitalization for Acute Coronary Syndrome: 0.70
  relative risk of fatal stroke: 0.62
  relative risk of ischemic stroke: 0.68
  relative risk of stroke: 0.65
  relative risk of stroke or TIA: 0.65
  relative risk of stroke, Acute Coronary Syndrome (ACS) or cardiovascular death: 0.68
[2]; versus placebo, x=1-RR
  decrease of the relative risk of cardiovascular hospitalization for Acute Coronary Syndrome: 30%
  decrease of the relative risk of fatal stroke: 38%
  decrease of the relative risk of ischemic stroke: 32%
  decrease of the relative risk of stroke: 35%
  decrease of the relative risk of stroke or TIA: 35%
  decrease of the relative risk of stroke, Acute Coronary Syndrome (ACS) or cardiovascular death: 32%
  decrease of the relative risk of stroke, Acute Coronary Syndrome (ACS) or death: 25%

## CC(C)NCC(O)c1ccc(NS(C)(=O)=O)cc1 (stereo not shown) [sotalol]
[1]
  increasing the time to a recurrence of atrial fibrillation, versus placebo: significantly more effective than placebo
  number of strokes per 100 patient-years of follow-up: 2.71 per 100 patient-years
